Data as given in patent publication EP0612525B1, “Transdermal treatment with mast cell degranulating agents for drug-induced hypersensitivity” (BRISTOL-MYERS SQUIBB COMPANY, priority 1993, dated 1994).
Values joined by “and” are separate entries in the source; they are usually repeats but may differ in a detail not shown here. Equal entries are not always repeated.

What was measured:
Balb/c mice [1] = assay: Contact hypersensitivity, DNCB sensitization / DNCB ear challenge (ear swelling); assay type: in vivo
dermal mast cells = assay: Chymase depletion from mast cells in skin organ cultures (immunohistochemical staining); assay type: cell-based
Procedure: Chymase is a proteolytic enzyme with chymotrypsin activity that is released from dermal mast cells upon degranulation. The enzyme has been implicated in proteolytic breakdown of endothelial cell basement membrane matrix proteins and to thereby facilitate leukocyte diapedesis. The release of chymase from mast cells was detected as a depletion of chymase-specific immunohistochemical staining observed in cryosections of the dermis in skin organ cultures. As a positive control 5 mM of morphine sulfate (MSO4 + ctrl) was added to the culture medium bathing the skin organ cultures. The negative control was untreated culture medium (SCM-ctrl). Cis-urocanic acid was added to the culture medium at 1 µg/ml and 10 µg/ml.

BALB/c female mice [2] = assay: Contact hypersensitivity, TNBS sensitization / TNCB ear challenge (ear swelling); assay type: in vivo
[3] = Percutaneous permeation of urocanic acid isomers through human cadaver skin (Franz cell diffusion chambers); assay type: in vitro ADME; conditions: in words
Procedure: Skin permeation experiments were undertaken to measure the flux of cis-UCA and the trans-UCA) through human skin. This information is required for topical delivery of cis-UCA using a TDS.
cis-UCA was prepared by ultraviolet irradiation of solutions of trans-UCA (obtained from Sigma Chemical Co., St. Louis, MO), as described above (see Example 1 above).
For skin permeation experiments, human cadaver skin was obtained and sectioned on a dermatome to yield a partial thickness skin of about 400 µm. Partial thickness skin samples were transferred to standard Franz cell diffusion chambers with the stratum corneum side up, and equilibrated with phosphate buffered saline (PBS) at pH 7.2. at 35°C in standard thermal blocks (Pierce Reacti-Therm).
Three different solution of UV-irradiated UCA were prepared. All samples were mixtures of both cis-UCA and trans-UCA, contained about between 55% to 67% cis-UCA. The three different solutions (0.5 ml) were applied to the skin samples in the donor chamber of the diffusion chamber, and fractions of the receptor solution (saline) were collected and the amount of cis and trans isomers that permeated through the skin determined by standard HPLC methods. […] The tissue extracts were neutralized and aliquots analyzed by HPLC.

inflamed skin = assay: Anti-inflammatory effect on bee-sting inflamed skin (single human subject); assay type: in vivo
Procedure: A subject was stung by a bee on the medial aspect of the lower portion of the right leg. Within one hour the skin site surrounding the bite became inflamed and an allergic reaction of the delayed hypersensitivity type was seen 24 hours later. […] This response persisted for several days.
The affected area was treated by application of 2% cis-UCA in a gel formulation (hydroxylpropylmethyl cellulose) to a 2-3 cm^2 area of inflamed skin. For a control, a similarly sized area of inflamed skin received the same hydroxylpropylmethyl cellulose gel without cis-UCA. Both treated areas were covered with a transparent dressing.

BALB/c female mice [4] = assay: Contact hypersensitivity, TNBS sensitization / TNCB ear challenge (ear swelling); assay type: in vivo; conditions: for % SUPPRESSION: TNBS 35 µg
Procedure: BALB/c female mice were maintained in a specific pathogen-free colony. Age-matched mice between 8 and 12 weeks of age were maintained in filter-protected cages and fed mouse chow and water ad libitum. Lighting was controlled to provide 12 hours light-dark cycles.
A 7% (w/v) working solution of trinitrobenzene sulfonate (TNBS) was prepared in distilled water. […] For induction of sensitization, each of 5 Balb/c mice received epicutaneous application of 35 µg of TNBS via a Hilltop chamber for 5 hours.
A contact hypersensitivity response was elicited on day 5 by challenging the right ear of each mouse with 20 µl of 1% trinitronchlorobenzene (TNCB) (in acetone). Ear thickness was measured with a spring-loaded caliper immediately before challenge, and at 24 and 48 hours after challenge. Ear thickness was measured in mm X 10^-3.
The statistical significance of differences in the contact hypersensitivity response between control and treated mice was determined using Student's t test for two independent variables. Each group contained five mice. Negative control mice were treated for 24 hours with 100 µl of PBS, pH 5.5, and challenged on the right ear 5 days later with 20 µl of 1% TNCB.
The mice were then epicutaneously sensitized with 100 µl of 0.035% TNBS (w/v) in PBS, pH 5.5.
For pretreatment plus co-administration, mice were first pretreated for 24 hours as above. Thereafter, 6000 µg of UCA (100 µl of 6% solution, 60 mg/ml in PBS pH 5.5) were placed in the Hilltop chamber along with 35 µg of TNBS.
Sensitization with TNBS was induced as described above.

Balb/c mice [5] = assay: Immune tolerance induction: re-sensitization with DNCB at a second skin site and re-challenge; assay type: in vivo; conditions: for EAR THICKNESS: DNCB 100 µg re-sensitization day 22, 24 Hours after re-challenge; for % SUPPRESSION / EAR SWELLING: DNCB day 22, 24 Hours
Procedure: To induce immune tolerance, Balb/c mice were treated with CUA in gel formulation as outlined above and a sensitization response elicited in the standard manner. Two weeks later, the previously sensitized mice were re-sensitized by applying 10 µl of 1% DNCB to a second skin site on shaved backs of both control (non-sensitized) and experimental (immunosuppressed by prior treatment with CUA) mice. Both control and experimental animals were challenged 5 days later by application of 20 µl of 1% DNCB to the left ear; ear thickness measurements were made 24 hours later.
Balb/c mice (N=8) were pretreated for 24 hours with 1% CUA in HPMC gel or 5% CUA in HPMC gel on the shaved abdominal skin (site 1), and challenged on the right ear five days later. The CUA-treated mice were immunosuppressed as shown in Table X. The same mice were re-sensitized with DNCB on a demarcated area of their shaved backs and rechallenged five days later on their left ears, and the ear thickness measured 24 hours post-challenge.

[6] = 2 mg (1%) HPMC gel pretreat, DNCB 100 µg, 24 Hours
[7] = 2 mg (1%) HPMC gel pretreat, DNCB 100 µg, 72 Hours
[8] = 10 mg (5%) HPMC gel pretreat, DNCB 100 µg, 24 Hours
[9] = 10 mg (5%) HPMC gel pretreat, DNCB 100 µg, 72 Hours
[10] = 5 Hours Pretreat 15 mg + DNCB 100 µg, 24 Hours
[11] = 5 Hours Pretreat 15 mg + DNCB 100 µg, 48 Hours
[12] = 24 Hours Pretreat 10 mg, then DNCB gel 100 µg, 24 Hours
[13] = 24 Hours Pretreat 10 mg, then DNCB gel 100 µg, 48 Hours
[14] = 24 Hours Pretreat 15 mg + DNCB 100 µg, 24 Hours
[15] = 24 Hours Pretreat 15 mg + DNCB 100 µg, 48 Hours
[16] = Co-Delivery, 10 mg + DNCB 100 µg, 24 Hours
[17] = Co-Delivery, 10 mg + DNCB 100 µg, 48 Hours

O=C(O)/C=C\c1c[nH]cn1 [cis-UCA, cis-urocanic acid]
% SUPPRESSION (Balb/c mice [1]; [6]): 71% | EAR SWELLING (Balb/c mice [1]; [6]): 26 mm X 10^3 | EAR SWELLING (Balb/c mice [1]; [7]): 48 mm X 10^3 | EAR THICKNESS (Balb/c mice [1]; [7]): 288 ± 23 mm X 10^3 | EAR THICKNESS (Balb/c mice [1]; 2 mg (1%) HPMC gel, 24 h pretreatment, DNCB 100 µg, 24 Hours): 270 ± 16 mm X 10^3 | % SUPPRESSION (Balb/c mice [1]; [8]): 80% | EAR SWELLING (Balb/c mice [1]; [8]): 18 mm X 10^3 | EAR THICKNESS (Balb/c mice [1]; [8]): 261 ± 15 mm X 10^3 | % SUPPRESSION (Balb/c mice [1]; [9]): 59% | EAR SWELLING (Balb/c mice [1]; [9]): 30 mm X 10^3 | EAR THICKNESS (Balb/c mice [1]; [9]): 270 ± 15 mm X 10^3 | EAR THICKNESS (Balb/c mice [1]; 5 Hours Pretreat 15 mg (7.5% gel) + DNCB 100 µg, 24 Hours): 285 ± 27 mm X 10^3 | % SUPPRESSION (Balb/c mice [1]; [10]): 46% | EAR SWELLING (Balb/c mice [1]; [10]): 42 mm X 10^3 | % SUPPRESSION (Balb/c mice [1]; [11]): 27% | EAR SWELLING (Balb/c mice [1]; [11]): 42 mm X 10^3 | EAR THICKNESS (Balb/c mice [1]; [11]): 284 ± 20 mm X 10^3 | EAR THICKNESS (Balb/c mice [1]; 24 Hours Pretreat 10 mg (5% gel), then DNCB gel 100 µg, 24 Hours): 260 ± 19 mm X 10^3 | % SUPPRESSION (Balb/c mice [1]; [12]): 52% | EAR SWELLING (Balb/c mice [1]; [12]): 29 mm X 10^3 | % SUPPRESSION (Balb/c mice [1]; [13]): 69% | EAR SWELLING (Balb/c mice [1]; [13]): 20 mm X 10^3 | EAR THICKNESS (Balb/c mice [1]; [13]): 259 ± 12 mm X 10^3 | EAR THICKNESS (Balb/c mice [1]; 24 Hours Pretreat 15 mg (7.5% gel) + DNCB 100 µg, 24 Hours): 288 ± 25 mm X 10^3 | % SUPPRESSION (Balb/c mice [1]; [14]): 59% | EAR SWELLING (Balb/c mice [1]; [14]): 47 mm X 10^3 | % SUPPRESSION (Balb/c mice [1]; [15]): 54% | EAR SWELLING (Balb/c mice [1]; [15]): 36 mm X 10^3 | EAR THICKNESS (Balb/c mice [1]; [15]): 276 ± 14 mm X 10^3 | EAR THICKNESS (Balb/c mice [1]; Co-Delivery, 10 mg (5% gel) + DNCB 100 µg, 24 Hours): 277 ± 27 mm X 10^3 | % SUPPRESSION (Balb/c mice [1]; [16]): not statistically significant | EAR SWELLING (Balb/c mice [1]; [16]): 39 mm X 10^3 | % SUPPRESSION (Balb/c mice [1]; Co-Delivery, 10 mg + DNCB 100 µg, 24 Hours, listed as UCA): 28% | % SUPPRESSION (Balb/c mice [1]; [17]): 29% | EAR SWELLING (Balb/c mice [1]; [17]): 43 mm X 10^3 | EAR THICKNESS (Balb/c mice [1]; [17]): 273 ± 23 mm X 10^3 | chymase positive mast cell per mm^2 (dermal mast cells; 1 µg/ml in culture medium): 22 ± 20 per mm^2 | chymase positive mast cell per mm^2 (dermal mast cells; 10 µg/ml in culture medium): 20 ± 10 per mm^2 | % SUPPRESSION (BALB/c female mice [2]; 200 µg, 24 hours before TNBS 3.5 mg, 24 hours after challenge): 36% | % SUPPRESSION (BALB/c female mice [2]; 600 µg, 24 hours before TNBS 3.5 mg, 24 hours after challenge): 63% | % SUPPRESSION (BALB/c female mice [2]; pretreatment + co-administration, TNBS 35 µg, 24 Hours): 52.8% | % SUPPRESSION (BALB/c female mice [2]; pretreatment + co-administration, TNBS 35 µg, 48 Hours): 56% | % SUPPRESSION (BALB/c female mice [2]; pretreatment + co-administration, TNBS 35 µg, 48 Hours, listed as cis-UROCANIC ACID): 55.8% | % SUPPRESSION (BALB/c female mice [2]; pretreatment only, 6% UCA PBS pH 5.5, TNBS 35 µg, 24 Hours): 68.3% | % SUPPRESSION (BALB/c female mice [2]; pretreatment only, 6% UCA PBS pH 5.5, TNBS 35 µg, 48 Hours): 77% | % SUPPRESSION (BALB/c female mice [2]; pretreatment only, 6% UCA PBS pH 5.5, TNBS 35 µg, 48 Hours, listed as cis-UROCANIC ACID): 77.2% | fluxes through human skin (comparison of isomers) [3]: comparable fluxes | appearance of treated skin site (inflamed skin; 2% gel, 14 hours after initiation of treatment): depressed (appearing normal) and lacked any red color | erythema and induration of inflamed skin (inflamed skin; 2% in hydroxylpropylmethyl cellulose gel, 2-3 cm^2 area, approximately 1 hour after application): erythema and induration disappeared | % SUPPRESSION (BALB/c female mice [4]; intradermal injection 200 µg, 24 Hours): 48% and 48.4% | % SUPPRESSION (BALB/c female mice [4]; intradermal injection 200 µg, 48 Hours): 32% and 31.6% | % SUPPRESSION (BALB/c female mice [4]; pretreatment + co-administration, 24 Hours): 53% | % SUPPRESSION (BALB/c female mice [4]; pretreatment only, 6% UCA PBS pH 5.5, 24 Hours): 68% | EAR THICKNESS (Balb/c mice [5]; 2 mg (1% HPMC gel) day -1): 327 ± 60 mm X 10^3 | % SUPPRESSION (Balb/c mice [5]; 2 mg day -1): 51% | EAR SWELLING (Balb/c mice [5]; 2 mg day -1): 70 mm X 10^3 | EAR THICKNESS (Balb/c mice [5]; 10 mg (5% HPMC gel) day -1): 334 ± 17 mm X 10^3 | % SUPPRESSION (Balb/c mice [5]; 10 mg day -1): 42% | EAR SWELLING (Balb/c mice [5]; 10 mg day -1): 84 mm X 10^3

O=C(O)/C=C/c1cnc[nH]1 [trans-UCA, trans-urocanic acid, reference compound]
fluxes through human skin (comparison of isomers) [3]: comparable fluxes | suppressive activity on contact sensitization (in words) (BALB/c female mice [4]; other experiments, compared with cis-UCA): much less suppressive activity

CN1CC[C@]23c4c5ccc(O)c4O[C@H]2[C@@H](O)C=C[C@H]3[C@H]1C5.O=S(=O)(O)O [morphine sulfate, reference compound]
chymase positive mast cell per mm^2 (dermal mast cells; 5 mM in culture medium, positive control): 37 ± 15 per mm^2
